Molecules are shown by their SMILES. Read-outs that look alike come from different tables or passages of the source.

For data set [1], the target named is T1, human CYP2E1 (Supersomes) (Homo sapiens, UniProt P05181). To be noted: recombinant enzyme, pH 7.4.
In data set [2] the target is T2, CYP2E1 in human liver microsomes (HLM150) (Homo sapiens, UniProt P05181). Particulars: pH 7.4.
Data set [3] deals with T3, CYP2E1 (Homo sapiens, UniProt P05181).
Data set [4] addresses T4, CYP2E1 activity with HLM150 (Homo sapiens, UniProt P05181).
Data set [5] deals with T3, CYP2E1. As to the kind of experiment: in vitro. Particulars: recombinant enzyme, pH 7.4.
For data set [6], the target named is T3, CYP2E1. Kind of data set: in vitro. Particulars: microsomes, pH 7.4.
Data set [7] has as its target T4, CYP2E1 activity with HLM150. Kind of data set: Steady-state inhibition kinetics of 4-nitrophenol oxidation, HLM150.
Data set [8] addresses T2, CYP2E1 in human liver microsomes (HLM150).
Data set [9] addresses T3, CYP2E1. Kind of data set: Steady-state inhibition kinetics of 4-nitrophenol oxidation, CYP2E1 Supersomes. Particulars: for Ki: Ki,ap, apparent, catalytic site, 95% CI in parentheses; for Mechanism: most probable inhibition mechanism among 10 models.
Data set [10] has as its target T3, CYP2E1. To be noted: human, recombinant enzyme, pH 7.4.
The target of data set [11] is T1, human CYP2E1 (Supersomes).
Data set [12] deals with T3, CYP2E1. Particulars: human, microsomes, pH 7.4.
In data set [13] the test system is CYP2E1. Particulars: CYP2E1 Supersomes; ref Hartman et al., 2012; cited from earlier work.

T1 sequence (P05181 whole entry): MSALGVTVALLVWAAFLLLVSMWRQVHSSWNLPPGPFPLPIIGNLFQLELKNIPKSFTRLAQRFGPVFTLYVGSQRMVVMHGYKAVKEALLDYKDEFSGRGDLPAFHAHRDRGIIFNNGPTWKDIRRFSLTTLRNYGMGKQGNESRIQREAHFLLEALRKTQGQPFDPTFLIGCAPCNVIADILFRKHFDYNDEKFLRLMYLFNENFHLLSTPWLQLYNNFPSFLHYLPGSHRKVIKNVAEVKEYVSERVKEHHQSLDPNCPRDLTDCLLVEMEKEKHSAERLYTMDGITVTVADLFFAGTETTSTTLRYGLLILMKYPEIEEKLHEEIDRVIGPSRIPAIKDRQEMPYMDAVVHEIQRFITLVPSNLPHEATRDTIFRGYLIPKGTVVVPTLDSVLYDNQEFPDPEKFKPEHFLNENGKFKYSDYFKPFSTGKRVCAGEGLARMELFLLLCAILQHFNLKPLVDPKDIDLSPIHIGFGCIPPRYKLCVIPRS
T3 sequence (P05181 whole entry): as above
T2 sequence (P05181 whole entry): as above
T4 sequence (P05181 whole entry): as above

What is called IC50 is the concentration that inhibits the measured activity by half. Regarding `OCC(O)c1ccccc1` (racemic) [R/S-Styrene glycol, (R/S)-1,2-phenylethanediol], the 50% inhibitory concentration (IC50) was 13 000 (2800–23 000) μM in data set [1] and 14 000 (6600–21 000) μM in [2]. In addition, the Mechanism result in data set [3] and in data set [4] was “Competitive” throughout. The “Ki,ap” value is on record as 29 000 (19 000–52 000) μM in data set [3] (recombinant enzyme) and 17 000 (15 000–19 000) μM in data set [4]. In addition, the activity at 30 min in [5] was determined as 9.2%; in data set [6] it was 18%.
With `C=Cc1ccc(O)cc1` [4-Vinylphenol, 4-vinylphenol], the Mechanism result in data set [3] is listed as “Mixed cooperative substrate”. Further, the IC50 at 30 min in data set [5] was found to be 24 µM. In addition, the activity at 30 min in data set [5] amounted to 16%; in [6], 19%. Moreover, the values for the Ki in data set [7] and in data set [9] were 61 µM and 47 µM, respectively. Besides, the IC50 in data set [8] came out at 38 µM.
`c1ccc(C2CO2)cc1` (stereo not shown) [Styrene oxide, 8,9-styrene oxide]: the Ki in data set [7] is 160 µM; in data set [9], 110 µM. The activity at 30 min was 13% in [10] and 28% in [12]. For the same compound, the IC50 in data set [11] turned out to be 55 µM; in data set [8], 150 µM. In data set [9], the Mechanism result was “Mixed cooperative substrate”.
In the case of `C=Cc1ccccc1` [Styrene, styrene], the “Ks (high affinity apparent binding constant during styrene metabolism)” value in [13] was 110 µM. The Ki in data set [7] (Ki,ap, HLM150, apparent, catalytic site, 95% CI in parentheses) is 18 µM; in [7] (Ksi,ap, HLM150, apparent, cooperative site, 95% CI in parentheses), 58 µM; in data set [9], 67 µM. Also, the activity at 30 min in data set [10] worked out at 11%; in [12], 20%. The IC50 in data set [11] turned out to be 75 µM; in data set [8], 45 µM. The Mechanism entry in data set [9] is reported as “Mixed cooperative substrate”.

The record behind these values is PMC3979932 (Xenobiotica; the fate of foreign compounds in biological …, 2013).
